Patent publication US8541474B2 (Hanall Biopharma Co., Ltd., priority 2007, dated 2013)
Counter-ions that a name gives are not always drawn. Each block holds one compound with its values, some of them ahead of it.

Tests used:
Human being = conditions: Oral; cited from earlier work
Mouse = conditions: Intraperitoneal; cited from earlier work
[1] = Measurement of hygroscopicity; format: physicochemical; conditions: 95% RH, 25° C.
[2] = system: diabetes mellitus induced experimental animal; test: Effect of drop in blood glucose level in diabetes mellitus induced (alloxan) rats; format: in vivo; conditions: for glucose concentration in blood: 0.05 mg as metformin, peritoneally
Description: This test supports the effect of the present invention.

male ICR mice = test: Test of drop in blood glucose after meal (OGTT with sucrose load); format: in vivo; conditions: for effect of drop in blood glucose compared to G8 (excipient control): 20 minutes after administration of sucrose
[3] = 100 mg/kg oral, 0 min after sucrose 2 g/kg
[4] = 100 mg/kg oral, 40 min after sucrose 2 g/kg
[5] = 100 mg/kg oral, 60 min after sucrose 2 g/kg
[6] = 100 mg/kg oral, 90 min after sucrose 2 g/kg
[7] = 100 mg/kg oral, 120 min after sucrose 2 g/kg
[8] = 100 mg/kg oral, 240 min after sucrose 2 g/kg
[9] = 200 mg/kg oral, 0 min after sucrose 2 g/kg
[10] = 200 mg/kg oral, 20 min after sucrose 2 g/kg
[11] = 200 mg/kg oral, 40 min after sucrose 2 g/kg
[12] = 200 mg/kg oral, 60 min after sucrose 2 g/kg
[13] = 200 mg/kg oral, 90 min after sucrose 2 g/kg
[14] = 200 mg/kg oral, 120 min after sucrose 2 g/kg
[15] = 200 mg/kg oral, 240 min after sucrose 2 g/kg
[16] = 400 mg/kg oral, 0 min after sucrose 2 g/kg
[17] = 400 mg/kg oral, 20 min after sucrose 2 g/kg
[18] = 400 mg/kg oral, 40 min after sucrose 2 g/kg
[19] = 400 mg/kg oral, 60 min after sucrose 2 g/kg
[20] = 400 mg/kg oral, 90 min after sucrose 2 g/kg
[21] = 400 mg/kg oral, 120 min after sucrose 2 g/kg
[22] = 400 mg/kg oral, 240 min after sucrose 2 g/kg

SMILES: CC(=O)O [Acetic acid]
- Dose (TDLo) (Human being): 1,470 μg/kg

SMILES: Cl [Hydrochloric acid]
- Dose (LD50) (Mouse): 40 mg/kg

SMILES: CC(=O)O.CN(C)C(=N)NC(=N)N [Metformin acetate, N,N-dimethyl imidodicarbonimidic diamide acetate]
- hygroscopicity compared with metformin hydrochloride [1]: lower than that of the metformin hydrochloride
- Hygroscopicity ([1]; 1 day): 0.35%
- Hygroscopicity ([1]; 2 days): 0.93%
- Hygroscopicity ([1]; 3 days): 1.37%
- Hygroscopicity ([1]; 6 days): 11.21%
- Hygroscopicity ([1]; 9 days): 23.32%
- decrease of glucose concentration versus control group ([2]; 10 hours after administration): about 7.5 mmol/L
- effect of drop in blood glucose compared with metformin hydrochloride ([2]; alloxan rats): more excellent than that of metformin hydrochloride
- glucose concentration in blood ([2]; alloxan rats, 0 hours): 13.8 mmol/L
- glucose concentration in blood ([2]; alloxan rats, 2 hours): 6.4 mmol/L
- glucose concentration in blood ([2]; alloxan rats, 4 hours): 7.5 mmol/L
- glucose concentration in blood ([2]; alloxan rats, 6 hours): 6.8 mmol/L
- glucose concentration in blood ([2]; alloxan rats, 8 hours): 5.9 mmol/L
- glucose concentration in blood ([2]; alloxan rats, 10 hours): 6.9 mmol/L
- effect of drop in blood glucose (male ICR mice; 100 mg/kg (G2), 240 minutes): effect of drop in blood glucose could be observed
- glucose concentration in blood (male ICR mice; [3]): 101.63 ± 4.94 mg/dL
- glucose concentration in blood (male ICR mice; [4]): 212.00 ± 15.68 mg/dL
- glucose concentration in blood (male ICR mice; [5]): 170.75 ± 17.38 mg/dL
- glucose concentration in blood (male ICR mice; [6]): 134.50 ± 15.64 mg/dL
- glucose concentration in blood (male ICR mice; [7]): 106.63 ± 10.44 mg/dL
- glucose concentration in blood (male ICR mice; [8]): 63.63 ± 4.94 mg/dL
- effect of drop in blood glucose (male ICR mice; 200 mg/kg (G3), 120 minutes): effect of drop in blood glucose could be observed
- effect of drop in blood glucose (male ICR mice; 200 mg/kg (G3), 240 minutes): effect of drop in blood glucose could be observed
- effect of drop in blood glucose compared to G8 (excipient control) (male ICR mice; 200 mg/kg (G3, G6)): effect of drop in blood glucose could be observed
- glucose concentration in blood (male ICR mice; [9]): 101.63 ± 4.58 mg/dL
- glucose concentration in blood (male ICR mice; [10]): 213.13 ± 11.36 mg/dL
- glucose concentration in blood (male ICR mice; [11]): 201.00 ± 21.78 mg/dL
- glucose concentration in blood (male ICR mice; [12]): 165.75 ± 15.91 mg/dL
- glucose concentration in blood (male ICR mice; [13]): 129.63 ± 8.08 mg/dL
- glucose concentration in blood (male ICR mice; [14]): 106.38 ± 4.07 mg/dL
- glucose concentration in blood (male ICR mice; [15]): 80.00 ± 3.73 mg/dL
- effect of drop in blood glucose compared to G8 (excipient control) (male ICR mice; 400 mg/kg (G4, G7)): effect of drop in blood glucose could be observed
- glucose concentration in blood (male ICR mice; [16]): 104.13 ± 6.53 mg/dL
- glucose concentration in blood (male ICR mice; [17]): 190.25 ± 16.05 mg/dL
- glucose concentration in blood (male ICR mice; [18]): 169.63 ± 21.19 mg/dL
- glucose concentration in blood (male ICR mice; [19]): 141.50 ± 18.24 mg/dL
- glucose concentration in blood (male ICR mice; [20]): 106.38 ± 13.75 mg/dL
- glucose concentration in blood (male ICR mice; [21]): 86.25 ± 11.25 mg/dL
- glucose concentration in blood (male ICR mice; [22]): 69.25 ± 7.96 mg/dL
- effect of drop in blood glucose compared with metformin hydrochloride (male ICR mice; 200 and 400 mg/kg dosage group, 20 to 60 minutes after administration of sucrose): higher effect of drop in blood glucose than that of the metformin hydrochloride
- effect of drop in blood glucose after meal compared with metformin hydrochloride (male ICR mice; overall inference from Table 11): more excellent than that of the metformin hydrochloride

- Hygroscopicity ([1]; 1 day): 6.29%
- Hygroscopicity ([1]; 2 days): 11.86%
- Hygroscopicity ([1]; 3 days): 23.3%
- Hygroscopicity ([1]; 6 days): 60.33%
- Hygroscopicity ([1]; 9 days): 68.78%
SMILES: CN(C)C(=N)N=C(N)N [Metformin hydrochloride, metformin hydrochloride, reference compound]
- glucose concentration in blood ([2]; alloxan rats, 0 hours): 13.8 mmol/L
- glucose concentration in blood ([2]; alloxan rats, 2 hours): 7.8 mmol/L
- glucose concentration in blood ([2]; alloxan rats, 4 hours): 6.4 mmol/L
- glucose concentration in blood ([2]; alloxan rats, 6 hours): 8.6 mmol/L
- glucose concentration in blood ([2]; alloxan rats, 8 hours): 7.9 mmol/L
- glucose concentration in blood ([2]; alloxan rats, 10 hours): 9.4 mmol/L
- glucose concentration in blood (male ICR mice; [3]): 104.00 ± 6.53 mg/dL
- glucose concentration in blood (male ICR mice; 100 mg/kg oral, 20 min after sucrose 2 g/kg): 246.00 ± 16.70 mg/dL
- glucose concentration in blood (male ICR mice; [4]): 194.38 ± 8.02 mg/dL
- glucose concentration in blood (male ICR mice; [5]): 151.50 ± 5.45 mg/dL
- glucose concentration in blood (male ICR mice; [6]): 122.38 ± 4.69 mg/dL
- glucose concentration in blood (male ICR mice; [7]): 111.75 ± 6.45 mg/dL
- glucose concentration in blood (male ICR mice; [8]): 83.63 ± 3.49 mg/dL
- effect of drop in blood glucose compared to G8 (excipient control) (male ICR mice; 200 mg/kg (G3, G6)): effect of drop in blood glucose could be observed
- glucose concentration in blood (male ICR mice; [9]): 107.13 ± 2.84 mg/dL
- glucose concentration in blood (male ICR mice; [10]): 227.50 ± 20.57 mg/dL
- glucose concentration in blood (male ICR mice; [11]): 187.25 ± 15.16 mg/dL
- glucose concentration in blood (male ICR mice; [12]): 147.25 ± 9.89 mg/dL
- glucose concentration in blood (male ICR mice; [13]): 121.25 ± 8.15 mg/dL
- glucose concentration in blood (male ICR mice; [14]): 106.75 ± 5.65 mg/dL
- glucose concentration in blood (male ICR mice; [15]): 87.13 ± 4.50 mg/dL
- effect of drop in blood glucose compared to G8 (excipient control) (male ICR mice; 400 mg/kg (G4, G7)): effect of drop in blood glucose could be observed
- glucose concentration in blood (male ICR mice; [16]): 104.75 ± 3.98 mg/dL
- glucose concentration in blood (male ICR mice; [17]): 187.38 ± 10.32 mg/dL
- glucose concentration in blood (male ICR mice; [18]): 167.63 ± 7.04 mg/dL
- glucose concentration in blood (male ICR mice; [19]): 135.63 ± 5.53 mg/dL
- glucose concentration in blood (male ICR mice; [20]): 110.50 ± 4.78 mg/dL
- glucose concentration in blood (male ICR mice; [21]): 87.88 ± 9.90 mg/dL
- glucose concentration in blood (male ICR mice; [22]): 64.38 ± 7.69 mg/dL
